Reference: patent publication US8288552B2, “Dihydropyridone amidesas P2X7 modulators” (Roche Palo Alto LLC, priority 2008, dated 2012)

Each molecule was assayed against T1, P2X7 (UniProt Q99572) (assay: P2X7 pKi of Table 1).
T1 sequence (Q99572 1-595): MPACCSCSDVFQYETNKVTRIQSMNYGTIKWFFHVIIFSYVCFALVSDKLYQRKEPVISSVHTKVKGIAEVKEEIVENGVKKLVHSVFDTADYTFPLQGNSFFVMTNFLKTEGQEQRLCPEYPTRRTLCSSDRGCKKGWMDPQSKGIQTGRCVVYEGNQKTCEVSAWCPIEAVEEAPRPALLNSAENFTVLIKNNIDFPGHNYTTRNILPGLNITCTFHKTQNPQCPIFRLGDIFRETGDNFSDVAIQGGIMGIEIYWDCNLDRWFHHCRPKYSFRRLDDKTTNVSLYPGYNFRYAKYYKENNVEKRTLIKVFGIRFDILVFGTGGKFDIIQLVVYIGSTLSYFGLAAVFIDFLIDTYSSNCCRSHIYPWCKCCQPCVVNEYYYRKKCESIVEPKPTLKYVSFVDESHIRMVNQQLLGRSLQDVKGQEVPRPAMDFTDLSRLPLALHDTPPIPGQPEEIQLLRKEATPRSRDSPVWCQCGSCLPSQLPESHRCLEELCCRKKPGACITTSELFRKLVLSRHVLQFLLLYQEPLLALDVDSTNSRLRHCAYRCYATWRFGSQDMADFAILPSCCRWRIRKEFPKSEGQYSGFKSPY
Type: cell-based
Outline: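 Human P2X7 in 1321N1 cells and rat P2X7 in HEK293 cells, loaded with fluo-3 for 1 hr at 37° C, then exposed to antagonist for 20 min at room temperature. BzATP agonist was used at 100 μM final (human) or 5 μM final (rat), with fluorescence read for 5 min. The response was normalized to maximal fluorescence evoked by 5 μM ionomycin.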

Row | SMILES | pKi
1 | Cc1cc(Cl)c(OCCO)cc1NC(=O)C1=CNC(=O)C[C@H]1c1cccc(F)c1 [Compound 72, (S)-4-(3-Fluoro-phenyl)-6-oxo-1,4,5,6-tetrahydro-pyridine-3-carboxylic acid[4-chloro-5-(2-hydroxy-ethoxy)-2-methyl-phenyl]-amide] | 7.8375
2 | Cc1cc(Cl)c(OCCO)cc1NC(=O)C1=CNC(=O)C[C@H]1c1ccc(F)cc1 [Compound 73, (S)-4-(4-Fluoro-phenyl)-6-oxo-1,4,5,6-tetrahydro-pyridine-3-carboxylic acid[4-chloro-5-(2-hydroxy-ethoxy)-2-methyl-phenyl]-amide] | 7.63
3 | Cc1cc(Cl)c(OCCO)cc1NC(=O)C1=CNC(=O)C[C@@H]1c1ccc(F)cc1 [Compound 74, (R)-4-(4-Fluoro-phenyl)-6-oxo-1,4,5,6-tetrahydro-pyridine-3-carboxylic acid[4-chloro-5-(2-hydroxy-ethoxy)-2-methyl-phenyl]-amide] | 6.63
4 | O=C1C[C@H](c2ccc(F)cc2)C(C(=O)Nc2cc(OCCO)c(Cl)cc2Br)=CN1 [Compound 75, (R)-4-(4-Fluoro-phenyl)-6-oxo-1,4,5,6-tetrahydro-pyridine-3-carboxylic acid[2-bromo-4-chloro-5-(2-hydroxy-ethoxy)-phenyl]-amide] | 6.245
5 | O=C1C[C@@H](c2ccc(F)cc2)C(C(=O)Nc2cc(OCCO)c(Cl)cc2Br)=CN1 [Compound 76, (S)-4-(4-Fluoro-phenyl)-6-oxo-1,4,5,6-tetrahydro-pyridine-3-carboxylic acid[2-bromo-4-chloro-5-(2-hydroxy-ethoxy)-phenyl]-amide] | 7.063
6 | Cc1cc(Cl)c(OCC(C)O)cc1NC(=O)C1=CNC(=O)CC1c1cccc(F)c1 (stereo not drawn) [Compound 77, 4-(3-Fluoro-phenyl)-6-oxo-1,4,5,6-tetrahydro-pyridine-3-carboxylic acid[4-chloro-5-(2-hydroxy-propoxy)-2-methyl-phenyl]-amide] | 7.375
7 | O=C1C[C@@H](c2cccc(F)c2)C(C(=O)Nc2cc(OCCO)c(Cl)cc2Br)=CN1 [Compound 78, (S)-4-(3-Fluoro-phenyl)-6-oxo-1,4,5,6-tetrahydro-pyridine-3-carboxylic acid[2-bromo-4-chloro-5-(2-hydroxy-ethoxy)-phenyl]-amide] | 7.695
8 | COc1cc(C)c(NC(=O)C2=CN(CCO)C(=O)CC2c2ccc(F)cc2)cc1OC (stereo not drawn) [Compound 79, 4-(4-Fluoro-phenyl)-1-(2-hydroxy-ethyl)-6-oxo-1,4,5,6-tetrahydro-pyridine-3-carboxylic acid(4,5-dimethoxy-2-methyl-phenyl)-amide] | 7.42
9 | Cc1ccc(C(C)O)cc1NC(=O)C1=CNC(=O)C[C@H]1c1ccc(F)cc1 (stereo partly drawn) [Compound 80, (S)-4-(4-Fluoro-phenyl)-6-oxo-1,4,5,6-tetrahydro-pyridine-3-carboxylic acid[5-(1-hydroxy-ethyl)-2-methyl-phenyl]-amide] | 7.59
10 | Cc1cc(Cl)c(OCC(O)CO)cc1NC(=O)C1=CNC(=O)C[C@H]1c1cccc(F)c1 (stereo partly drawn) [Compound 81, (S)-4-(3-Fluoro-phenyl)-6-oxo-1,4,5,6-tetrahydro-pyridine-3-carboxylic acid[4-chloro-5-(2,3-dihydroxy-propoxy)-2-methyl-phenyl]-amide] | 5.76
11 | COc1cc(NC(=O)C2=CNC(=O)C[C@H]2c2cccc(F)c2)c(C)cc1F [Compound 82, (S)-4-(3-Fluoro-phenyl)-6-oxo-1,4,5,6-tetrahydro-pyridine-3-carboxylic acid(4-fluoro-5-methoxy-2-methyl-phenyl)-amide] | 7.975
12 | Cc1ccccc1CNC(=O)C1=CNC(=O)C[C@H]1c1cccc(F)c1 [Compound 83, (S)-4-(3-Fluoro-phenyl)-6-oxo-1,4,5,6-tetrahydro-pyridine-3-carboxylic acid 2-methyl-benzylamide] | 6.17
13 | O=C1C[C@@H](c2cccc(F)c2)C(C(=O)NCc2ccccc2Cl)=CN1 [Compound 84, (S)-4-(3-Fluoro-phenyl)-6-oxo-1,4,5,6-tetrahydro-pyridine-3-carboxylic acid 2-chloro-benzylamide] | 6.365
14 | CC(=O)COc1cc(NC(=O)C2=CNC(=O)C[C@H]2c2cccc(F)c2)c(C)cc1F [Compound 85, (S)-4-(3-Fluoro-phenyl)-6-oxo-1,4,5,6-tetrahydro-pyridine-3-carboxylic acid[4-fluoro-2-methyl-5-(2-oxo-propoxy)-phenyl]-amide] | 6.705
15 | Cc1c(F)cccc1NC(=O)C1=CNC(=O)C[C@H]1c1ccc(F)cc1 [Compound 87, (S)-4-(4-Fluoro-phenyl)-6-oxo-1,4,5,6-tetrahydro-pyridine-3-carboxylic acid(3-fluoro-2-methyl-phenyl)-amide] | 6.63
16 | Cc1c(Cl)cccc1NC(=O)C1=CNC(=O)C[C@H]1c1cccc(F)c1 [Compound 88, (S)-4-(3-Fluoro-phenyl)-6-oxo-1,4,5,6-tetrahydro-pyridine-3-carboxylic acid(3-chloro-2-methyl-phenyl)-amide] | 7.915
17 | Cc1ccc([C@@H](C)O)cc1NC(=O)C1=CNC(=O)C[C@H]1c1ccc(F)cc1 [Compound 89, (S)-4-(4-Fluoro-phenyl)-6-oxo-1,4,5,6-tetrahydro-pyridine-3-carboxylic acid[5-((R)-1-hydroxy-ethyl)-2-methyl-phenyl]-amide] | 7.443
18 | Cc1ccc([C@H](C)O)cc1NC(=O)C1=CNC(=O)C[C@H]1c1ccc(F)cc1 [Compound 90, (S)-4-(4-Fluoro-phenyl)-6-oxo-1,4,5,6-tetrahydro-pyridine-3-carboxylic acid[5-((S)-1-hydroxy-ethyl)-2-methyl-phenyl]-amide] | 7.19
19 | COc1cc(C)c(NC(=O)C2=CN(C)C(=O)C(C)C2c2ccc(F)cc2)cc1OC (stereo not drawn) [Compound 91, 4-(4-Fluoro-phenyl)-1,5-dimethyl-6-oxo-1,4,5,6-tetrahydro-pyridine-3-carboxylic acid(4,5-dimethoxy-2-methyl-phenyl)-amide] | 5.65
20 | Cc1ccc(Cl)cc1NC(=O)C1=CNC(=O)C[C@H]1c1cccc(F)c1 [Compound 92, (S)-4-(3-Fluoro-phenyl)-6-oxo-1,4,5,6-tetrahydro-pyridine-3-carboxylic acid(5-chloro-2-methyl-phenyl)-amide] | 6.995
21 | CC(=O)c1ccc(C)c(NC(=O)C2=CNC(=O)C[C@H]2c2ccc(F)cc2)c1 [Compound 93, (S)-4-(4-Fluoro-phenyl)-6-oxo-1,4,5,6-tetrahydro-pyridine-3-carboxylic acid(5-acetyl-2-methyl-phenyl)-amide] | 6.86
22 | Cc1c(Cl)cccc1NC(=O)C1=CNC(=O)C[C@H]1c1ccc(F)cc1 [Compound 94, (S)-4-(4-Fluoro-phenyl)-6-oxo-1,4,5,6-tetrahydro-pyridine-3-carboxylic acid(3-chloro-2-methyl-phenyl)-amide] | 7.83
23 | O=C1C[C@@H](c2ccc(F)cc2)C(C(=O)Nc2ccccc2C(F)(F)F)=CN1 [Compound 95, (S)-4-(4-Fluoro-phenyl)-6-oxo-1,4,5,6-tetrahydro-pyridine-3-carboxylic acid(2-trifluoromethyl-phenyl)-amide] | 6.26
24 | O=C1C[C@@H](c2ccc(F)cc2)C(C(=O)NCc2ccccc2Cl)=CN1 [Compound 97, (S)-4-(4-Fluoro-phenyl)-6-oxo-1,4,5,6-tetrahydro-pyridine-3-carboxylic acid 2-chloro-benzylamide] | 6.16
25 | Cc1ccc(OC(F)(F)F)cc1NC(=O)C1=CNC(=O)C[C@H]1c1ccc(F)cc1 [Compound 99, (S)-4-(4-Fluoro-phenyl)-6-oxo-1,4,5,6-tetrahydro-pyridine-3-carboxylic acid(2-methyl-5-trifluoromethoxy-phenyl)-amide] | 6.755
26 | Cc1c(CCO)cccc1NC(=O)C1=CNC(=O)C[C@H]1c1ccc(F)cc1 [Compound 100, (S)-4-(4-Fluoro-phenyl)-6-oxo-1,4,5,6-tetrahydro-pyridine-3-carboxylic acid[3-(2-hydroxy-ethyl)-2-methyl-phenyl]-amide] | 6.803
27 | Cc1ccccc1NC(=O)C1=CNC(=O)C[C@H]1c1ccc(F)cc1 [Compound 101, (S)-4-(4-Fluoro-phenyl)-6-oxo-1,4,5,6-tetrahydro-pyridine-3-carboxylic acid o-tolylamide] | 6.415
28 | CCc1c(NC(=O)C2=CNC(=O)CC2c2ccc(F)cc2)cccc1OC (stereo not drawn) [Compound 102, 4-(4-Fluoro-phenyl)-6-oxo-1,4,5,6-tetrahydro-pyridine-3-carboxylic acid(2-ethyl-3-methoxy-phenyl)-amide] | 7.316
29 | Cc1cccc(NC(=O)C2=CNC(=O)C[C@H]2c2ccc(F)cc2)c1Cl [Compound 103, (S)-4-(4-Fluoro-phenyl)-6-oxo-1,4,5,6-tetrahydro-pyridine-3-carboxylic acid(2-chloro-3-methyl-phenyl)-amide] | 7.44
30 | Cc1cc(Cl)c(CO)cc1NC(=O)C1=CNC(=O)C[C@H]1c1ccc(F)cc1 [Compound 104, (S)-4-(4-Fluoro-phenyl)-6-oxo-1,4,5,6-tetrahydro-pyridine-3-carboxylic acid(4-chloro-5-hydroxymethyl-2-methyl-phenyl)-amide] | 7.21
